{
  "source": "patent EP1754488A1",
  "about": "“Methods and compositions for non-viral gene therapy for treatment of hyperproliferative diseases” (Introgen Therapeutics, Inc., priority 1999, dated 2000)",
  "origin": "cited, not measured here",
  "key": {"[1]": {"system": "multiple myeloma", "settings": "oral administration"}},
  "note": "Structures can show the parent of a compound that is named as a salt. *1 amine or outer side, *2 acyl side, *3 side chain or, on linkers, in order; H or OH if unused. Where a SMILES comes first, the peptide text is derived from it. Bridges are numbered along the chain shown (N, C = ends). Roman numbers before positions name the chains, in order. [ ]: non-standard residue; d: D form. Actinocin(9to1) = Cc1c2oc3c(C)ccc(C(=O)[*:1])c3nc-2c(C(=O)[*:2])c(N)c1=O; NMeV = CN[C@H](C(=O)O)C(C)C; Sar = CNCC(=O)O",
  "data": [
    {"smiles": "N[C@@H](Cc1ccc(N(CCCl)CCCl)cc1)C(=O)O", "note": "[Melphalan, 4-[bis(2-chloroethyl)amino]-L-phenylalanine]", "values": [
      {"measurement": "patients showing a favorable response", "setting": "[1]", "result": "about one third to one half of the patients"}
    ]},
    {"smiles": "CC[C@]1(O)C[C@@H]2CN(CCc3c([nH]c4ccccc34)[C@@](C(=O)OC)(c3cc4c(cc3OC)N(C)[C@H]3[C@@](O)(C(=O)OC)[C@H](OC(C)=O)[C@]5(CC)C=CCN6CC[C@]43[C@@H]65)C2)C1", "note": "[Vinblastine]", "values": [
      {"measurement": "excreted / detected intact in the urine", "setting": "in vivo", "result": "Approximately 15%"},
      {"measurement": "half-life of disappearance from plasma after distribution (first)", "setting": "intravenous injection", "result": "approximately 1 hours"},
      {"measurement": "half-life of disappearance from plasma after distribution (second)", "setting": "intravenous injection", "result": "~72000", "unit": "s"}
    ]},
    {"smiles": "O=NN(CCCl)C(=O)NC1CCCCC1", "note": "[Lomustine, 1-(2-chloro-ethyl)-3-cyclohexyl-1 nitrosourea]", "values": [
      {"measurement": "radioactivity excreted in the form of degradation products within 24 hours", "setting": "oral radioactive lomustine, 30 mg/m^2 to 100 mg/m^2", "result": "about half of the radioactivity"}
    ]},
    {"smiles": "Cc1c2oc3c(C)ccc(C(=O)N[C@@H]4C(=O)N[C@H](C(C)C)C(=O)N5CCC[C@H]5C(=O)N(C)CC(=O)N(C)[C@@H](C(C)C)C(=O)O[C@@H]4C)c3nc-2c(C(=O)N[C@@H]2C(=O)N[C@H](C(C)C)C(=O)N3CCC[C@H]3C(=O)N(C)CC(=O)N(C)[C@@H](C(C)C)C(=O)O[C@@H]2C)c(N)c1=O", "note": "[Actinomycin D] (I: T[dV]P[Sar][NMeV] / II: T[dV]P[Sar][NMeV]; ester I:1-I:C, II:1-II:C; linker I:N-II:N via Actinocin(9to1))", "values": [
      {"measurement": "excreted / detected intact in the urine", "setting": "in vivo", "result": 10, "unit": "%"},
      {"measurement": "excreted intact into the bile", "setting": "in vivo", "result": "Half of the dose"}
    ]},
    {"smiles": "COc1cccc2c1C(=O)c1c(O)c3c(c(O)c1C2=O)C[C@@](O)(C(C)=O)C[C@@H]3O[C@H]1C[C@H](N)[C@H](O)[C@H](C)O1", "note": "[Daunorubicin, 5,12-Naphthacenedione, (8S-cis)-8-acetyl-10-[(3-amino-2,3,6-trideoxy-a-L-lyxo-hexanopyranosyl)oxy]-7,8,9,10-tetrahydro-6,8,11-trihydroxy-10-methoxy-, hydrochloride]", "values": [
      {"measurement": "half-life of distribution", "setting": "in vivo", "result": 0.75, "unit": "h"}
    ]}
  ]
}
